Results as given in US20260257992A1, “AGONISTS OF SMALL HETERODIMER PARTNER FOR CANCER THERAPY” (THE BOARD OF TRUSTEES OF THE UNIVERSITY OF ILLINOIS, priority 2023, published 2026).

Key:
[1] = system: ABCA1 mRNA; experiment: ABCA1 mRNA reduction in Raw cells; format: cell-based; parameters: key: ✓: using strict cutoffs with respect to DSHN for passing each metric; X: using strict cutoffs with respect to DSHN for passing each metric; conditions: pass/fail with respect to DSHN
From the text: (§1) Development of a more efficacious NR0B2 agonist. While DSHN was a useful proof-of-concept small molecule, macrophages required high doses and chronic exposure for robust influences on subsequent Tregs expansion. […] Therefore, we synthesized several derivatives of DSHN and screened them using a reporter assay which makes use of the endogenous cholesterol homeostatic feedback loop, where FXR activation upregulates NR0B2, which then inhibits LXR and its normal induction of ABCA1. We then followed this screen with several others with stringent cutoffs: effect on endogenous ABCA1 and IL1β expression, reduction of Treg expansion in either macrophage or DC co-cultures, and low cellular toxicity (FIG. 5A, Table 4).

[2] = Low cellular toxicity screen; format: cell-based; parameters: key: ✓: using strict cutoffs with respect to DSHN for passing each metric; X: using strict cutoffs with respect to DSHN for passing each metric; conditions: pass/fail with respect to DSHN
From the text: as §1
Resazurin cell viability assay. 20,000 cells were seeded into 96 well f-bottom, black plates (Corning Costar) and cell viability was measured using 100 μL resazurin per well at 0.3 mg/mL (Acros Organics). The fluorescence signal was quantified by plate reader (560 nm excitation/590 nm emission) at 2-3 h.

[3] = system: Treg expansion; experiment: Treg expansion in co-culture with compound-treated splenic CD11C+ dendritic cells; format: cell-based, mouse; parameters: key to Treg expansion Dendritic Cells: ✓: using strict cutoffs with respect to DSHN for passing each metric; X: using strict cutoffs with respect to DSHN for passing each metric; conditions: pass/fail with respect to DSHN
Experimental: (§2) Preparation of Bone Marrow-Derived Macrophages (BMDMs) and Dendritic Cells. Bone marrow cells were collected from mouse tibia and femur. Cells were passed through 70-micron cell strainer and subsequently cultured 10 mL complete RPMI media supplemented with 20 ng/mL of recombinant murine M-CSF (576406; BioLegend, 315-02 PeproTech). On day 3, additional 5 ml of the complete media was added. On day 7, media was replaced. BMDMs were harvested on day 10 using cell stripper solution for further experiments. Dendritic cells were isolated from the spleens of wildtype, using mouse CD11c UltraPure MicroBeads (130-125-835; Miltenyi Biotec) according to the manufacturer's instructions) and cultured in RPMI medium supplemented with 10% heat-inactivated charcoal-stripped FBS, 50 μM β-mercaptoethanol, 1% sodium pyruvate, 1% nonessential amino acids, % penicillin/streptomycin, and 1% Glutamax.
(§3) In vitro Treg expansion assays. T cells were cultured in RPMI medium supplemented with 10% heat-inactivated charcoal-stripped FBS, 50 μM β-mercaptoethanol (Gibco), 1% sodium pyruvate, 1% nonessential amino acids, % penicillin/streptomycin, and 1% Glutamax (Gibco). Naïve CD4^+ T cells were isolated from the spleens of wildtype and OT-II, using Naive CD4^+ T Cell Isolation Kit (Miltenyi Biotec according to the manufacturer's instructions). T cells were labeled with the vital dye CFSE (BioLegend) or Cell Trace Violet (ThermoFisher) according to the manufacturer's instructions. For wildtype Treg expansion in presence of antigen presenting cells, naïve CD4^+ T cells were co-cultured with APC at indicated ratio in the presence of 0.5 μg/mL (anti-CD3 BioLegend), 0.5 ng/mL TGFβ (BioLegend) and 0.5 ng/ml IL-2 (BioLegend) for 72 hr at 37° C. For OT-II Treg expansion, OTII naïve CD4^+ T cells from OT-II mice were activated by antigen presentation by culturing BMDMs were primed with 10 μg/mL OVA323-339 (Bachem) and 0.5 μg/mL LPS (Sigma). naïve CD4+ T cells from OTII mice were co-cultured with primed APC at indicated ratio for 72 hrs. After 72 hrs of culture, cells were transferred into V-bottom plates (BD), pelleted by centrifugation and incubated with antibody staining mix containing Ghost Dye™ Red 780 viability dye diluted in PBS for 15 minutes at 4° C. Cell surface antigens were stained for 15 minutes at 4° C. with an antibody staining mix containing Ghost Dye™ Red 780 viability dye diluted in PBS. Cells were fixed and permeabilized with BD Cytofix/Cytoperm™ for 20 minutes at 4° C. Antibodies against intracellular antigens were diluted in 1×BD Perm/Wash™ buffer and cells were stained for 30 minutes at 4° C. Cytometry data were acquired on a LSRII, Fortessa, Symphony A1 (Becton Dickinson, NJ). Foxp3 induction was assessed by expression of FOXP3.

[4] = system: Treg expansion; experiment: Treg expansion in co-culture with compound-treated BMDMs (macrophages); format: cell-based, mouse; parameters: key to Treg expansion macrophages: ✓: using strict cutoffs with respect to DSHN for passing each metric; X: using strict cutoffs with respect to DSHN for passing each metric; conditions: pass/fail with respect to DSHN
Experimental: as §2, §3

[5] = system: IL1b mRNA; experiment: IL1b mRNA reduction in Raw cells; format: cell-based; parameters: key: ✓: using strict cutoffs with respect to DSHN for passing each metric; X: using strict cutoffs with respect to DSHN for passing each metric; conditions: pass/fail with respect to DSHN
From the text: as §1

[6] = biological target: T1, NR0B2 (Homo sapiens, UniProt Q15466); experiment: ABCA1 reporter screen to identify NR0B2 agonists (HepG2); format: cell-based; parameters: key: ✓: using strict cutoffs with respect to DSHN for passing each metric; X: using strict cutoffs with respect to DSHN for passing each metric; conditions: HepG2, 50 μM test compound, 1 μM GW3965; pass/fail with respect to DSHN
T1 construct: a reporter assay which makes use of the endogenous cholesterol homeostatic feedback loop; endogenous in cells; host or cells: HepG2
T1 sequence (Q15466 1-257): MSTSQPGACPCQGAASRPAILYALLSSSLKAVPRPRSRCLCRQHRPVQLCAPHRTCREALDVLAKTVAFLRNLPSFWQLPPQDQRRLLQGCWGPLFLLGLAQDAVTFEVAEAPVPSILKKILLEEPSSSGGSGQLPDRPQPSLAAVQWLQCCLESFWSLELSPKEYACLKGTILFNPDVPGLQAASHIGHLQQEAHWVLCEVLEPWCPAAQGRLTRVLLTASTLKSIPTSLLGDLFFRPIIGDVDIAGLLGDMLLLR
From the text: as §1
Screening to identify NR0B2 agonists. HepG2 cells were co-transfected with ABCA1 renilla reporter plasmid and TK-control firefly luciferase vector at 20:1 using Lipofectamine 3000 reagent according to manufacturer's instructions for 24 hrs. Afterwards, 7000 cells were seeded in to 384 well f-bottom, white plates (Greiner Bio-One). Test compounds were added to the plates in a final working volume of 30 μL (for a final concentration of 50 μM) in presence of DMSO or 1 μM GW3965 and incubated for 20-24 hrs at 37° C. Luciferase activity was measured using the Luc-Pair Duo-Luciferase HT Assay kit (GeneCopoeia, Rockville, MD, USA) by adding luciferase substrates sequentially following manufacturer instructions. Luminescence was measured with 2 s integration times in a microplate reader (BioTek Cytation 5), 15 min after adding each substrate. The addition of reagents to the microplates was timed at each step to match the reading time delays and reading sequence of the microplate reader.

Row | SMILES | ABCA1 mRNA reduction (Raw Cells) [1] | Low Toxicity [2] | Treg expansion Dendritic Cells [3] | Treg expansion macrophages [4] | IL1b mRNA reduction (Raw Cells) [5] | ABCA1 reporter screen [6]
1 | COC(=O)c1cc2cccc(S(=O)(=O)N(C)C)c2cc1OC [Compound 7, Methyl 5-(N,N-dimethylsulfamoyl)-3-methoxy-2-naphthoate] | X | ✓ | ✓ | ✓ | ✓ | ✓
2 | CCNS(=O)(=O)c1cccc2cc(C(=O)OC)c(OC)cc12 [Compound 5, Methyl 5-(N-ethylsulfamoyl)-3-methoxy-2-naphthoate] | X | ✓ | ✓ | ✓ | ✓ | X
3 | CCN(CC)S(=O)(=O)c1ccc2cc(O)c(C(=O)OC)cc2c1 [Compound 9, Methyl 7-(N,N-diethylsulfamoyl)-3-hydroxy-2-naphthoate] | X | ✓ | ✓ | ✓ | ✓ | X
4 | CCNS(=O)(=O)c1ccc2cc(OC)c(C(=O)OC)cc2c1 [Compound 6, Methyl 7-(N-ethylsulfamoyl)-3-methoxy-2-naphthoate] | X | X | ✓ | ✓ | X | ✓
5 | COC(=O)c1cc2cc(S(=O)(=O)N(C)C)ccc2cc1OC [Compound 8, Methyl 7-(N,N-dimethylsulfamoyl)-3-methoxy-2-naphthoate] | X | ✓ | ✓ | ✓ | X | ✓
